Test results from patent US5641861A, “μopioid receptor ligands: agonists and antagonists” (Torrey Pines Institute For Molecular Studies, priority 1995, dated 1997).
Where no end group is shown, it is not given here. [ ]: non-standard residue; d: D form.

Columns and labels:
μ receptor = biological target: T1, μ receptor (Homo sapiens, UniProt P35372); assay: Adenylyl cyclase assay, SH-SY5Y neuroblastoma cell membranes; format: biochemical; settings: AGONISTS section; cyclic AMP level, agonist alone at 100 μM
T1 construct: An adenylyl cyclase assay using human SH-SY5Y neuroblastoma cell line membranes; endogenous in cells; host or cells: human SH-SY5Y neuroblastoma cells, retinoic-acid differentiated; membranes
Procedure: An adenylyl cyclase assay using human SH-SY5Y neuroblastoma cell line membranes was used to rapidly determine the opioid agonists or antagonist properties of individual peptides. Opioid agonist inhibit adenylyl cyclase activity, resulting in reduced levels of cyclic AMP.
Cell membranes were prepared for use in the adenylyl cyclase assays as previously described (Law et al., Mol. Pharmacol., 23:26-35 (1983), which is herein incorporated by reference). After the initial centrifugation at 200×g for 15 min at 4° C., the cells were resuspended in sucrose buffer (0.32M sucrose, 40 mM HEPES, 2 mMEGTA, pH 7.6). Cells were centrifuged again at 200×g, then homogenized in sucrose buffer with five strokes of a Dounce Homogenizer (Wheaton Instruments, Millville, N.J.). […]
SH-SY5Y membranes were incubated in a final volume of 100 μl of 40 mM HEPES, pH 7.7, containing 15 units of creatine phosphokinase, 20 mM phosphocreatine, 1 mM 1,10-o-phenanthroline, 60 μM isobutylmethylxanthine (IBMX), 50 μM ATP, 50 μM GTP, 3 mM MgCl2 and 100 mM NaCl. […] The amount of cyclic AMP present in 100 μl of the supernatant, equivalent to the cyclic AMP produced by 15 μg of membrane protein, was determined using a cyclic AMP kit (Diagnostic Products, Los Angeles, Calif.). […] The final supernatants were counted in 10 ml of Ecolite (+) scintillation fluid (ICN Pharmaceuticals, Covina, Calif.).

MU RECEPTOR = assay: Agonist or antagonist activity by adenylyl cyclase assay or GPI assay (not specified which); settings: Table 13
κ receptors = biological target: T2, κ receptors (Cavia porcellus, UniProt P41144); assay: Radioreceptor assay selective for κ receptors ([3H]-U69,593); format: binding, guinea pig; settings: ratio of IC50 values
T2 construct: tissue homogenates prepared from guinea pig brains (cortex and cerebellum); tissue Harlan Bioproducts for Science; host or cells: guinea pig brain (cortex and cerebellum) homogenate
Procedure: Assays selective for κ receptors were carried out using [^3 H]-U69,593 (3 nM, specific activity 62 Ci/mmol) as the radioligand and tissue homogenates prepared from guinea pig brains (cortex and cerebellum) using Tris buffer containing 100 μM PMSF, 5 mMMgCl2 and 1 mg/ml BSA, pH 7.4. Sample tubes were incubated for 2.5 hr.

δ receptors = biological target: T3, δ receptors (Rattus norvegicus, UniProt P33533); assay: Radioreceptor assay selective for δ receptors ([3H]-naltrindole); format: binding; settings: ratio of IC50 values
T3 construct: Radioreceptor assays selective for δ receptors were performed using rat brain homogenates; tissue Harlan Bioproducts for Science; host or cells: rat brain crude membrane homogenate
Procedure: Radioreceptor assays selective for δ receptors were performed using rat brain homogenates as above and [^3 H]-naltrindole (0.5 nM, specific activity 34.7 Ci/mmol) as radioligand in Tris buffer containing 100 μM phenylmethylsulfonyl fluoride (PMSF), 5 mMMgCl2 and 1 mg/ml bovine serum albumin (BSA), pH 7.4. Samples were incubated for 2.5 hr. Standard curves were prepared using 0.10-3200 nM [^3 H]-D-Pen2, Pen5 ]-enkephalin ([^3 H]-DPDPE).

mouse vas deferens = assay: Mouse vas deferens (MVD) bioassay; settings: inhibition of electrically stimulated contraction
Excerpt: The mouse vas deferens (MVD) bioassay was also used to determine whether a peptide is an opioid agonist or an opiod antagonist. Again, such information is not available from the radioreceptor binding assay results.
The MVD assay (Henderson et al., Br. J. Pharma. 12:119-127 (1957), which is incorporated herein by reference) is another one of the most widely used assays for the determination of opioid activities in vitro. This assay, like the GPI assay, is based on the ability of opioid agonists to inhibit electrically stimulated contractions in tissue. The MVD assay is also not "clean" in that, in addition to the predominant δ receptor, the μ and κ receptors are also present. […]
Mouse vasa deferentia were dissected and placed in Krebs solution. The responses of the longitudinal muscle were recorded under a basal tension of 0.5 g and excited by pulses of 1 millisecond duration.
In all bioassays, a dose-response curve with a reference compound (e.g., [D-Ala^2, Leu^5 ]enkephelinamide or U50,488) is used in each preparation. […] Potencies of new compounds to be tested are determined relative to that of the reference compound, and their IC50 values are normalized based on an average IC50 value which has been obtained for the reference compound by performance of many determinations with a large number of preparations. […]

guinea-pig ileum = settings: inhibition of electrically stimulated contraction; read-out: GPI IC50
Excerpt: The GPI assay (Kosterlitz et al., Br. J. Pharam. 39:398-418 (1970), which is incorporated herein by reference), is one of the most widely used assays for the determination of opioid activities in vitro. The assay is based on the ability of opioid agonists to inhibit electrically stimulated contraction in tissue. GPI is not a "clean" assay insofar as the ileum preparation contains both μ and κ receptors. However, μ receptor mediated-effects in the GPI can be distinguished from κ receptor mediated effects by determining Ke values for naloxone as the antagonist (μ effects: Ke ~1-3 nM); κ effects: Ke ~20-30 nM) or by using specific μ or κ antagonists.
The guinea pigs were killed by decapitation. […] Isometric contractions were measured via strain gauge force transducers and recorded on stripchart recorders.
In all bioassays, a dose-response curve with a reference compound (e.g., [D-Ala^2, Leu^5 ]enkephelinamide or U50,488) is used in each preparation. […] Ke values for naloxone or other antagonists are determined from the ratio of IC50 values (DR) obtained with the peptide under investigation in the presence and absence of a fixed concentration of the antagonist, using the formula Ke =a/(DR-1) ("a"=fixed concentration). A log dose-response curve is obtained with [Leu^5 ]enkephalin for each ileum and vas deferens preparation and the IC50 value is determined. […]

T3 sequence (P33533 whole entry): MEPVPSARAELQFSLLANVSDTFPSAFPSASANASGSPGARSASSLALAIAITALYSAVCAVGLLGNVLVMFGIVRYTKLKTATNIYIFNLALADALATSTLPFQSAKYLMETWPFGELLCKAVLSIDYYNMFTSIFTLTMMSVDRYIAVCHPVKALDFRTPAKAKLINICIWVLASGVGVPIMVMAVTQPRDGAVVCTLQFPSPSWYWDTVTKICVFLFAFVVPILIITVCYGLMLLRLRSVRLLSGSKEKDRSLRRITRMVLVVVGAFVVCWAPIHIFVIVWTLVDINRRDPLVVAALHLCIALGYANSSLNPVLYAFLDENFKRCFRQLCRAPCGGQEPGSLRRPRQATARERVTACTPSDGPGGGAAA
T2 sequence (P41144 whole entry): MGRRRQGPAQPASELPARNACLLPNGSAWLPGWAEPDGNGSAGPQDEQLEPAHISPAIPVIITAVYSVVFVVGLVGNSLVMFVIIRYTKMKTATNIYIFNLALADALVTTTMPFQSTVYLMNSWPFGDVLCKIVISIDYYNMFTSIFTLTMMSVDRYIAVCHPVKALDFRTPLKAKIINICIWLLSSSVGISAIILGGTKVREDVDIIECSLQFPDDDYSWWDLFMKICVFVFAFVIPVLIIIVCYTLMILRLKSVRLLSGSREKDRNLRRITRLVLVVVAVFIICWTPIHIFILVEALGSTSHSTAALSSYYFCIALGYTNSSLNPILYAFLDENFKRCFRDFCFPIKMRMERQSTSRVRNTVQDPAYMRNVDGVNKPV
T1 sequence (P35372 whole entry): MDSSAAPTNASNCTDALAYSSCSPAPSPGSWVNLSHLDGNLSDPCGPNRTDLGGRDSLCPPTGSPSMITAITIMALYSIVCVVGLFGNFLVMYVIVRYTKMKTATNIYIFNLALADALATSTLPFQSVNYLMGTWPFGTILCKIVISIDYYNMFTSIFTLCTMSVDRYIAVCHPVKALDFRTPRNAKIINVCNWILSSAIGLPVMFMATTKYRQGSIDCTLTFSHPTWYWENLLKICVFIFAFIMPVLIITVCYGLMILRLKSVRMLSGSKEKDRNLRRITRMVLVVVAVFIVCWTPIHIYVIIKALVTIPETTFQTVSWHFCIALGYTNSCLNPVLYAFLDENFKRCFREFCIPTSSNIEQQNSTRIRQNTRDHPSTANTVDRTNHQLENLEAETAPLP

Compound: C[C@@H](NC(=O)[C@@H](N)Cc1ccc(O)cc1)C(=O)NCC(=O)N(C)[C@@H](Cc1ccccc1)C(=O)NCCO [DAMGO, [D-Ala^2, MePhe^4, Gly-ol^5]enkephalin]
- % Basal Control (μ receptor): 34 ± 6%

Compound: (D)Ile--(D)Met--(D)Thr--(D)Trp--Gly--(D)Pro--NH2 ([dI][dM][dT][dW]G[dP]-NH2; N-terminus assumed; SMILES CC[C@@H](C)[C@@H](N)C(=O)N[C@H](CCSC)C(=O)N[C@@H](C(=O)N[C@H](Cc1c[nH]c2ccccc12)C(=O)NCC(=O)N1CCC[C@@H]1C(N)=O)[C@H](C)O) [SEQ ID NO. 130]
- AGONIST OR ANTAGONIST (MU RECEPTOR): Agonist

Compound: Trp--Trp--Pro--Arg--NH2 [SEQ ID NO. 69]
- κ/μ (κ receptors): 2,060
- δ/μ (δ receptors): 1,740

Compound: WWPKHK-NH2 [SEQ ID NO. 50]
- IC50 (mouse vas deferens): 0.045 ± 0.007 µM
- IC50 (guinea-pig ileum): 0.27 ± 0.019 µM
